Conditions: Gas

FC(F)C(F)(F)F [pentafluoroethane]
Conditions | speed of sound [m/s]
277.16 K, 20.94 kPa | 144.94
277.16 K, 40.92 kPa | 144.49
277.16 K, 60.65 kPa | 144.05
277.16 K, 80.97 kPa | 143.59
277.16 K, 101.09 kPa | 143.13
277.16 K, 121.01 kPa | 142.67
277.16 K, 141.08 kPa | 142.2
277.16 K, 161.07 kPa | 141.73
277.16 K, 180.84 kPa | 141.26
277.16 K, 198.8 kPa | 140.83
303.14 K, 10.51 kPa | 151.5
303.14 K, 20.76 kPa | 151.31
303.14 K, 40.75 kPa | 150.97
303.14 K, 60.79 kPa | 150.62
303.14 K, 80.27 kPa | 150.28
303.14 K, 100.78 kPa | 149.93
303.14 K, 120.91 kPa | 149.57
303.14 K, 140.84 kPa | 149.22
303.14 K, 160.84 kPa | 148.87
303.14 K, 180.99 kPa | 148.5
303.14 K, 200.32 kPa | 148.16
303.14 K, 300.92 kPa | 146.32
303.14 K, 398.68 kPa | 144.47
303.14 K, 465.23 kPa | 143.19
313.15 K, 10.5 kPa | 153.84
313.15 K, 20.68 kPa | 153.68
313.15 K, 40.59 kPa | 153.37
313.15 K, 60.28 kPa | 153.06
313.15 K, 80.59 kPa | 152.74
313.15 K, 100.57 kPa | 152.43
313.15 K, 120.77 kPa | 152.11
313.15 K, 140.78 kPa | 151.79
313.15 K, 160.71 kPa | 151.47
313.15 K, 180.78 kPa | 151.14
313.15 K, 200.47 kPa | 150.82
313.15 K, 300.67 kPa | 149.18
313.15 K, 400.7 kPa | 147.49
313.15 K, 480.34 kPa | 146.12
323.14 K, 10.7 kPa | 156.16
323.14 K, 20.42 kPa | 156.02
323.14 K, 40.64 kPa | 155.73
323.14 K, 60.8 kPa | 155.44
323.14 K, 80.84 kPa | 155.16
323.14 K, 100.74 kPa | 154.87
323.14 K, 120.86 kPa | 154.58
323.14 K, 140.92 kPa | 154.29
323.14 K, 160.95 kPa | 154
323.14 K, 180.33 kPa | 153.71
323.14 K, 200.71 kPa | 153.41
323.14 K, 300.75 kPa | 151.93
323.14 K, 400.83 kPa | 150.41
323.14 K, 501.38 kPa | 148.85
343.13 K, 40.76 kPa | 160.33
343.13 K, 60.62 kPa | 160.09
343.13 K, 80.21 kPa | 159.86
343.13 K, 100.97 kPa | 159.61
343.13 K, 120.73 kPa | 159.37
343.13 K, 140.89 kPa | 159.13
343.13 K, 160.51 kPa | 158.89
343.13 K, 180.9 kPa | 158.65
343.13 K, 197.5 kPa | 158.44
343.13 K, 300.29 kPa | 157.19
343.13 K, 400.48 kPa | 155.94
343.13 K, 500.26 kPa | 154.68
343.13 K, 600.3 kPa | 153.41
343.14 K, 20.77 kPa | 160.58
343.14 K, 40.77 kPa | 160.34
343.14 K, 59.94 kPa | 160.11
343.14 K, 80.48 kPa | 159.86
343.14 K, 100.55 kPa | 159.62
343.14 K, 120.9 kPa | 159.38
343.14 K, 140.63 kPa | 159.14
343.14 K, 160.64 kPa | 158.9
343.14 K, 180.84 kPa | 158.65
343.14 K, 200.46 kPa | 158.41
343.14 K, 300.55 kPa | 157.19
343.14 K, 399.77 kPa | 155.96
343.14 K, 501.32 kPa | 154.68

Source: the NIST ThermoML archive (doi:10.1021/je034213q)
